According to patent US5976523A, “Method for healing compromised tissues using pyrimidine derivatives” (Mitsui Pharmaceuticals, Inc., priority 1995, dated 1999):
Structures can show the parent of a compound that is named as a salt.

Tested on: PDGF-A mRNAs
Test: Northern blot analysis of PDGF-A mRNA expression in cultured rat SMCs
Format: cell-based
Description: SMCs were prepared following the method proposed by Ross and Klebanoff in "J. Cell. Biol.", 50, 159 ff, 1971 with partial modifications. A rat thoracic aorta was excised. After the tunica externa was peeled off, the tunica media and the tunica intima were minced into 2-3 mm^2. The minced sections were placed standstill in a 25-cm^2 flask which contained Waymouth's MB 752/1 medium containing 10% FBS and 80 ng/ml of gentamycin (product of Schering-Plough Corp.), followed by incubation at 37° C. for 2 to 3 weeks in the presence of 5% carbon dioxide gas (primary culture). The same volume of a trypsin-EDTA solution was added to the flask. After the sections were treated at 37° C. for 5 minutes to peel off cells, the cells were diluted with 10% FBS-Waymouth's MB 752/1 medium and then subcultured (second generation). Subculture was successively conducted likewise whenever the SMC became confluent. In the following experiments, the cells from the 5th generation to the 12th generation were employed.
After reach in confluence of cells, the cultured SMCs were cultured for 2 days in a serum-free medium to avoid influence of serum. The SMCs were then added with thrombin (1.0 U/ml) or serotonin (5 μM), followed by incubation at 37° C. for 6 hours under which bring about induction of PDGF-A mRNAs at the maximum. To prevent dissociation of ribosomes and mRNAs, cycloheximide (100 μg/ml) was added 5 minutes before cells were collected.
Preparation of a polysome fraction and extraction of RNAs were conducted following the method proposed by Kasper, et al. in "J. Biol. Chem.", 267, 508 ff, 1992 with slight modifications. The cells, which had been collected by the treatment with trypsin, were washed with PBS containing cycloheximide (100 μg/ml). A cell precipitate was then added with 500 μl of a high-salt lysis buffer (20 mM Tris-HCl pH 7.5, 250 mM NaCl, 5 mM MgCl2, 0.1% Noni det P-40, 0.2% DOC) for homogenization. The homogenate was centrifuged under 12,000×g at 4° C. for 10 minutes. The resulting supernatant was added with 67 μl of a heparine mix (7.4 mg/ml heparine, 1.1M NaCl, 15 mM DTT and RNasin). 200 μl of the extract were layered on 5 ml of 0.5-1.25M linear sucrose gradient (which contained 20 mM Tris-HCl pH 7.4, 10 mM NaCl, 3 mM MgCl2), followed by centrifugation under 45,000 rpm for 90 minutes in a "Hitachi RP55ST". While monitoring the absorbance at 260 nm, ten (10) fractions were obtained. To prepare samples for the extraction of RNAs, the fractions were individually added with SDS and proteinase K to give final concentrations of 1% and 0.2 mg/ml, respectively. Subsequent to incubation at 37° C. for 1 hour, each fraction was extracted once with 1/2 volume of phenol, twice with 1/2 volume aliquots of chloroform, and once with the equal volume of chloroform, whereby proteins were removed. The water layer was added with glycogen (20 μg/ml) as a coprecipitant and then with 0.03M of sodium acetate, and RNAs were caused to precipitate with 2 volumes of ethanol.
After RNAs were incubated at 65° C. for 5 minutes in a solution containing 60% of formamide, 5.9% of formaldehyde and the equal volume of MOPS buffer (10 mM MOPS pH 7.0, 4 mM NaOAc, 0.5 mM EDTA), electrophoresis was conducted across 1.2% agarose gels containing the equal volume of MOPS buffer so that RNAs were. isolated. After the gel was washed with 20 volumes of SSC, RNAs were blotted overnight to a Gene Screen Plus membrane by the capillary method. Fixing of the RNAs was conducted by exposing them for 1 minute at a distance of 10 cm from a 15-W sterilamp. Using a "QuickHyb Hybridization Solution" (product of Strategene Ltd.), hybridization was conducted following the instruction manual attached to the solution. Results of autoradiography were quantitated with reference to the NIH Image. […]

Compound: CN1Cc2nc(N3CCNCC3)ncc2C1=O [Compound B, 2-piperazino-6-methyl-5-oxo-5,6-dihydro(7H)pyrro[3,4-d]pyrimidine maleate]
- fold induction at 100 µM (Rattus norvegicus, 6 h, read-out: expression amount of 1.7 kb PDGF-A mRNAs compared with control): 1.4
- band of 1.3 kb PDGF-A (addition of compound): additionally detected
- 2.3 kb PDGF-A mRNAs (compound 0.1 mM + thrombin): in greater amounts
- 2.9 kb PDGF-A mRNAs (compound 0.1 mM + thrombin): in greater amounts
